Assay results taken from US20010025028A1, “Methods of inhibiting bone resorption” (Merck & Co., Inc., priority 1998, published 2001).

Columns and labels:
[1] = test system: co-culture of mouse bone marrow cells and MB 1.8 mouse osteoblasts; assay: Osteoclastogenesis in murine co-cultures of bone marrow cells and MB 1.8 osteoblasts (TRAP fluorescence or counting of osteoclast-like cells); format: cell-based; conditions: FIG. 1
[2] = test system: bone marrow cultures; conditions: cited from earlier work

SMILES: CC1(O)CCOC(=O)C1 (racemic) [D,L-mevalonic acid lactone]
- reversal of lovastatin inhibition of osteoclastogenesis (TRAP fluorescence assay) ([1]; D,L-mevalonic acid lactone 1 mM together with 1 or 10 μM lovastatin, added at days 5 and 6, read on day 7): reversal

SMILES: CC[C@H](C)C(=O)O[C@H]1C[C@@H](C)C=C2C=C[C@H](C)[C@H](CC[C@@H]3C[C@@H](O)CC(=O)O3)[C@H]21 [lovastatin]
- inhibition of osteoclastogenesis (tartrate resistant acid phosphatase activity, percent activity relative to no treatment) ([1]; lovastatin 1 and 10 μM added at days 5 and 6, TRAP activity measured on day 7): inhibition of osteoclastogenesis

SMILES: C[C@@](O)(CCO)CC(=O)O [mevalonic acid]
- effect of added mevalonic acid on the inhibition of osteoclastogenesis by mevastatin ([2]; added to mevastatin): partially restored

SMILES: CC[C@H](C)C(=O)O[C@H]1CCC=C2C=C[C@H](C)[C@H](CC[C@@H]3C[C@@H](O)CC(=O)O3)[C@H]21 [mevastatin]
- inhibition of in vitro osteoclastogenesis formation [2]: inhibit in vitro osteoclastogenesis formation
